Laboratory results as given in patent US20230295229A1, “PEPTIDE SELECTIVELY BINDING TO CANCER CELL-DERIVED EXOSOME, AND USES THEREOF” (KYUNGPOOK NATIONAL UNIVERSITY INDUSTRY-ACADEMIC COOPERATION …, priority 2020, published 2023).

How the values were obtained:
[1] = tested on: MDA-MB231 cell-derived exosome / MDA-MB231 cells; test: confocal microscopy of peptide internalization with CD63-GFP exosomes; assay type: cell-based; details: 10 uM TAMARA-conjugated peptide, 37° C., 1 hour
Experimental: In addition, an experiment was performed on exosomes derived from MDA-MB231 cells which were prepared to secrete exosomes showing green fluorescence by expressing CD63-GFP. GFP exosomes (green) and 10 uM TAMARA-conjugated peptide (red) were reacted with MDA-MB231 cells at 37° C. for 1 hour. Thereafter, after performing immobilization, DAPI nucleus staining, and mounting as described above, observation was followed using a confocal microscope (Zeiss, Oberkochen, Germany).

[2] = tested on: A549 tumor mouse blood-derived exosome; test: flow cytometry binding of FITC-labeled ExoPep to blood-derived exosomes; details: FITC-labeled peptide, CD63 antibody beads
Experimental: A549 cells were injected into BALB/c nude mice, blood was collected after the tumor grew, and exosomes were isolated using an exosome isolation kit. To measure the binding of the peptide to the exosomes by flow cytometry, the exosomes were labeled with CD63 antibody beads. As a control group, exosomes isolated from the blood of normal mice were used. The exosome-bead complex labeled with CD63 beads was blocked by a reaction with 1% BSA/PBS at room temperature for 30 minutes to reduce non-specific binding. After washing, the FITC-labeled ExoPep peptides were bound to the exosome-bead complex at 4° C. for 30 minutes. After washing again with PBS, the binding of the peptide to the exosome-bead complex was analyzed using a flow cytometer (ThermoFisher Scientific, USA) (FIG. 7A).

[3] = tested on: exosomes derived from normal HEK293 cells / HEK293 cells; test: confocal microscopy of peptide internalization with exosomes; assay type: cell-based; details: same manner
Experimental: (§1) Media of A549, HEK293, and MDA-MB231 cells were collected, exosomes were isolated through ultracentrifugation, and exosomes were labeled with DiD fluorescence reagent (red), followed by a reaction with ExoPep peptide (FITC label, green). After the reaction, the cells were immobilized, and the nuclei were stained with DAPI (blue) to analyze with confocal microscopy. More specifically, the isolated exosomes and DiD (1:200 dilution) were reacted on a stirrer at 37° C. for 30 minutes. After adding Exoquick reagent, condition was maintained at 4° C. for 30 minutes, and then DiD-labeled exosomes were precipitated by centrifugation at 13000 rpm for 3 minutes. Thereafter, a mixture of 10 uM FITC-conjugated peptide and DiD-labeled exosomes was reacted with A549 cells at 37° C. for 1 hour. After washing three times, immobilization was performed using 2% paraformaldehyde (PFA). After washing again, cells were treated with 4′-6-diamidino-2-phenylindole (DAPI) for nucleus staining. Finally, after mounting, observation was followed using a confocal microscope (Zeiss, Oberkochen, Germany).
On the other hand, the exosomes derived from normal HEK293 cells were treated in the same manner as described above and observed under a confocal microscope (Zeiss, Oberkochen, Germany).

[4] = tested on: A549 cell-derived exosome / A549 cells; test: as above; assay type: cell-based, human; details: 10 uM FITC-conjugated peptide, DiD-labeled exosomes, 37° C., 1 hour
Experimental: as §1

[5] = tested on: A549 cell-derived exosomes; test: inhibition of exosome internalization by magnetic removal of peptide-bound exosomes; assay type: cell-based, human; details: exosomes pretreated with biotin-labeled peptide, then removed with magnet
Experimental: In order to further identify the binding specificity of the ExoPep peptide to the A549 cell-derived exosome, the exosomes were labeled with a DID fluorescent dye, reacted with the biotin-labeled ExoPep peptide, and then conjugated with biotin by reacting the labeled avidin with magnetic particles. The complex of exosomes/biotin-peptide/avidin-magnetic particles prepared by the reaction was captured and removed using a magnet, and the remaining exosomes were treated to recipient cells (FIG. 5A).

[6] = tested on: red blood cells; test: in vitro hemolysis assay; assay type: cell-based; details: various concentrations up to a final concentration of 200 μM, 37° C., 1 hour
Experimental: Next, an in vitro hemolysis assay was performed. In vitro hemolysis assay, as an indicator of hemolysis of red blood cells after exposure to a drug or an agent, was conducted by measuring the hemoglobin release in plasma. This is an accurate, sensitive method to predict the hemolytic activity of a drug. Fresh blood was centrifuged at 500×g for 10 minutes, and the pellet of red blood cells was washed 3 times and re-suspended in 10 mM PBS in pH 7.4. Equal volumes of red blood cells were reacted with various concentrations of ExoPep peptide by stirring at 37° C. for 1 hour. The samples were then centrifuged at 4° C. at 500×g for 10 minutes. RBC lysis was measured by analyzing absorbance at OD 540 nm depending on the concentration of different peptides. […] The hemolytic activity of the peptide was calculated in a percentage using the following equation.
H=100×(OP−OB)/(OT−OB) Equation:
In the equation above, OP, OB, and OT represent optical density of the peptide solution at an indicated concentration, optical density of a buffer, and optical density of Triton X 100, respectively.

[7] = tested on: recipient cell A549; test: internalization of peptide with blood-derived exosomes into cells; assay type: cell-based, human; details: DiD-labeled exosomes, FITC-labeled peptide
Experimental: In order to observe internalization of peptides into cells, exosomes were labeled with DiD, reacted with FITC-labeled peptides, and treated to A549 cells. Cells were immobilized with 4% paraformaldehyde for 5 minutes and stained with DAPI, followed by observation under a microscope.

[8] = tested on: A549 tumor mice; test: in vivo distribution imaging of DiD-labeled exosomes with or without ExoPep; parameters: species or system mouse; details: without exosomes
Experimental: DiD-labeled A549 tumor mouse blood-derived exosomes and A549 cell-derived exosomes were reacted with ExoPep peptide, and image monitoring was performed for in vivo distribution. Tumor xenograft mice were prepared by subcutaneously implanting A549 cell suspension (5×10^6 cells) along with PBS into the right flank of 5-week-old female BALB/c nude mice. When the tumor size reached a volume of approximately 100-200 mm^3, the mice were anesthetized. A549 tumor mice was intravenously administered with DiD-labeled A549 tumor mouse blood-derived exosomes (mEXO) and a product obtained by reacting the exosomes (mEXO) with peptides (mEXO+ExoPep, n=3) as well as DiD-labeled A549 cell-derived exosomes (cEXO) and a product obtained by reacting the exosomes (cEXO) with peptides (cEXO+ExoPep, n=3). The inventors of the present disclosure used FITC-labeled control peptide and ExoPep (n=3) as controls. In vivo fluorescence images were analyzed using an IVIS imaging system (Caliper Life Sciences, Massachusetts, USA) at various time points (2, 4, 8, and 24 hours, respectively) after administration of DiD-labeled exosomes. In vitro fluorescence images of excised tumors and organs were collected 24 hours after administration. All major organs (liver, kidney, spleen, heart, and lung) having tumor tissues were separated, washed with PBS, and subjected to in vitro fluorescence analysis (n=3).

CRKVAKG [ExoPep]
peptide observed in cells (internalization with exosomes) [1]: more of which were observed in the cells than the control peptide
binding to tumor mouse blood-derived exosome versus normal mouse blood-derived exosome [2]: bound better
peptide observed in cells (internalization with exosomes) [3]: not observed in the cells
peptide observed in cells (internalization with exosomes) [4]: observed along with the exosomes in A549 cells
internalization of exosomes into recipient cells [5]: significantly inhibited
hemolytic activity [6]: only low levels of hemolytic activity
internalization into recipient cell, tumor versus normal mouse blood-derived exosome [7]: internalized more
fluorescence signal of FITC-labeled peptide itself [8]: low signals
